Each structure is given as a SMILES string.
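Also: fluorescence intensity readout of USP7 enzymatic activity, reaction incubated 90 min at room temperature.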

In the assay the target is USP7 (Homo sapiens, UniProt Q93009). The experiment in a line: biochemical.
Chain of USP7 (Q93009 whole entry): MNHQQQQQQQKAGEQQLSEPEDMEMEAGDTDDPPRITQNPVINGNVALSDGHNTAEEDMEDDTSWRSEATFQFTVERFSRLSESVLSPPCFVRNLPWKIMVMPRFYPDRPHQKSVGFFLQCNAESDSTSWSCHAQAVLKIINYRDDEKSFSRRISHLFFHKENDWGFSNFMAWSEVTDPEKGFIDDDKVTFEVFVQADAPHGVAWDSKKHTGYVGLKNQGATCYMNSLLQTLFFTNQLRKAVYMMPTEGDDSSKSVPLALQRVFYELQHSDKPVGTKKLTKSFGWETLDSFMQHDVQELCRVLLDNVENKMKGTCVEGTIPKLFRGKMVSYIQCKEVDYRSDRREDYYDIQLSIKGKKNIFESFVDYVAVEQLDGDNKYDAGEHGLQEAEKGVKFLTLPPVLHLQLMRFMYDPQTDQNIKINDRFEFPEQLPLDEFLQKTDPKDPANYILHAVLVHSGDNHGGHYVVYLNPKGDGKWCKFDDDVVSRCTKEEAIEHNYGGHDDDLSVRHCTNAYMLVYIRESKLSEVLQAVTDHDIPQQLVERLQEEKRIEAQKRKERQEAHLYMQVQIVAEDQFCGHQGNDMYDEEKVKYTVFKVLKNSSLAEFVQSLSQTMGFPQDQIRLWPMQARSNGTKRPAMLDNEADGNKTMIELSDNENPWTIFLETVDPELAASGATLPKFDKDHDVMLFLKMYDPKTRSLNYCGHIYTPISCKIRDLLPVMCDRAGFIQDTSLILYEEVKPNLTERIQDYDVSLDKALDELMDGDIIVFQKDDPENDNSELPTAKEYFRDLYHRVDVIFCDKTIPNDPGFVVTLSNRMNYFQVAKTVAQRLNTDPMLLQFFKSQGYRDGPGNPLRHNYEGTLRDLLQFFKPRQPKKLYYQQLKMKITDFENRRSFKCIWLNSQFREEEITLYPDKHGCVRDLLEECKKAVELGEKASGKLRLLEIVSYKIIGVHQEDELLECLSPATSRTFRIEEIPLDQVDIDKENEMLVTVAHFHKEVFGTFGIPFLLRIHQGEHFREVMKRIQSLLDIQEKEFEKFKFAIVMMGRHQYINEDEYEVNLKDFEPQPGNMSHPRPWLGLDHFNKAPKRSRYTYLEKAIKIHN
`CNC(=O)N1CC(N2CCCc3cc(Cl)cc(-c4ccnc5cc(CN6C(=O)CCC6=O)sc45)c32)C1` [Example 7, 3-[6-chloro-8-[2-[(2,5-dioxopyrrolidin-1-yl)methyl]thieno[3,2-b]pyridin-7-yl]-3,4-dihydro-2H-quinolin-1-yl]-N-methyl-azetidine-1-carboxamide]: the concentration for half-maximal inhibition (IC50) (in general, the concentration at which inhibition is half-maximal) fell in the range of 0.101 to 1 µM.

`O=c1ccn(CC(F)F)c(=O)n1Cc1cc2nccc(-c3cc(C(F)(F)F)cc4c3N([C@H]3CCNC3)CCC4)c2s1` [Example 81, (S)-1-(2,2-difluoroethyl)-3-((7-(1-(pyrrolidin-3-yl)-6-(trifluoromethyl)-1,2,3,4-tetrahydroquinolin-8-yl)thieno[3,2-b]pyridin-2-yl)methyl)pyrimidine-2,4(1H,3H)-dione] showed an IC50 below 0.01 µM.

`CC1(C)C[C@H](N2CCOc3cc(C#N)cc(-c4ccnc5cc(Cn6ncc(C7CC7)cc6=O)sc45)c32)CN1` [Example 135, (S)-5-(2-((4-cyclopropyl-6-oxopyridazin-1(6H)-yl)methyl)thieno[3,2-b]pyridin-7-yl)-4-(5,5-dimethylpyrrolidin-3-yl)-3,4-dihydro-2H-benzo[b][1,4]oxazine-7-carbonitrile] registered an IC50 below 0.01 µM.

`O=C1CCC(=O)N1Cc1cc2nccc(-c3cc(Cl)cc4c3N([C@H]3CO[C@H](CO)C3)CCO4)c2s1` (single isomer, unassigned) [Example 227b] returned an IC50 of 0.101 to 1 µM.

Molecule `CC1(C)C[C@H](N2CCCc3cc(C#N)cc(-c4ccnc5cc(CN6C(=O)C7CC7C6=O)sc45)c32)CN1` (stereo partly drawn) [Example 124, 1-((S)-5,5-dimethylpyrrolidin-3-yl)-8-(2-((2,4-dioxo-3-azabicyclo[3.1.0]hexan-3-yl)methyl)thieno[3,2-b]pyridin-7-yl)-1,2,3,4-tetrahydroquinoline-6-carbonitrile] registered an IC50 below 0.01 µM.

In turn, `O=C1CCC(=O)N1Cc1cc2nccc(-c3cc(Cl)cc4c3N([C@H]3C[C@@H](O)C3)CCC4)c2s1` [Example 41, Cis-1-[[7-[6-chloro-1-(3-hydroxycyclobutyl)-3,4-dihydro-2H-quinolin-8-yl]thieno[3,2-b]pyridin-2-yl]methyl]pyrrolidine-2,5-dione] returned a half-maximal inhibitory concentration (IC50) above 1 µM.

The molecule `CC(F)(F)Cn1ccc(=O)n(Cc2cc3nccc(-c4cc(C#N)cc5c4N([C@H]4CCNC4)CCC5)c3s2)c1=O` [Example 89, (S)-8-(2-((3-(2,2-difluoropropyl)-2,6-dioxo-2,3-dihydropyrimidin-1(6H)-yl)methyl)thieno[3,2-b]pyridin-7-yl)-1-(pyrrolidin-3-yl)-1,2,3,4-tetrahydroquinoline-6-carbonitrile] gave a 50% inhibitory concentration (IC50) below 0.01 µM.

With `C[C@@H]1C[C@H](N2CCCc3cc(Cl)cc(-c4ccnc5cc(Cn6c(=O)ccn(CC(F)(F)F)c6=O)sc45)c32)CN1` (single isomer, unassigned) [Example 95b], the IC50 is 0.01 to 0.1 µM.

The molecule `C[C@@]1(C(=O)O)C[C@H](N2CCCc3cc(Cl)cc(-c4ccnc5cc(CN6C(=O)CCC6=O)sc45)c32)CN1` [Example 205, (2S,4S)-4-(6-chloro-8-(2-((2,5-dioxopyrrolidin-1-yl)methyl)thieno[3,2-b]pyridin-7-yl)-3,4-dihydroquinolin-1(2H)-yl)-2-methylpyrrolidine-2-carboxylic acid] registered a half-inhibitory concentration (IC50) below 0.01 µM.

`O=C1CCC(=O)N1Cc1cc2nccc(-c3cc(Cl)cc4c3N(C3CNC5(CCC5)C3)C(=O)CO4)c2s1` (single isomer, unassigned) [Example 173a] showed an IC50 of 0.01 to 0.1 µM.

Molecule `Cc1cc2c(c(-c3ccnc4cc(CN5C(=O)CCC5=O)sc34)c1)N(C1CNC1)CCC2` [Example 33, 1-[[7-[1-(azetidin-3-yl)-6-methyl-3,4-dihydro-2H-quinolin-8-yl]thieno[3,2-b]pyridin-2-yl]methyl]pyrrolidine-2,5-dione] had a concentration for half-maximal inhibition (IC50) of 0.01 to 0.1 µM.

Take `Cc1cnn(Cc2cc3nccc(-c4cc(C#N)cc5c4N(C4CNC6(CCC6)C4)CCC5)c3s2)c(=O)c1` (single isomer, unassigned) [Example 164a]: the concentration for half-maximal inhibition (IC50) was below 0.01 µM.

In turn, `O=C1CCC(=O)N1Cc1cc2ncnc(-c3cc(Cl)cc4c3N(C3CNC5(CCC5)C3)CCC4)c2s1` (single isomer, unassigned) [Example 161a] registered a 50% inhibitory concentration (IC50) below 0.01 µM.

Take `O=C1CCC(=O)N1Cc1cc2nccc(-c3cc(Cl)cc4c3N([C@@H]3CNC[C@H]3F)CCC4)c2s1` (single isomer, unassigned) [Example 96b]: the IC50 lay within 0.01 to 0.1 µM.

Molecule `CN1C[C@@H](N2CCCc3cc(Cl)cc(-c4ccnc5cc(CN6C(=O)CCC6=O)sc45)c32)CC12CCC2` [Example 140, (S)-1-((7-(6-chloro-1-(5-methyl-5-azaspiro[3.4]octan-7-yl)-1,2,3,4-tetrahydroquinolin-8-yl)thieno[3,2-b]pyridin-2-yl)methyl)pyrrolidine-2,5-dione] had an IC50 below 0.01 µM.

In turn, `CN1CCC(=O)N(Cc2cc3nccc(-c4cc(Cl)cc5c4N([C@H]4CCNC4)CCC5)c3s2)C1=O` [Example 76, (S)-3-((7-(6-chloro-1-(pyrrolidin-3-yl)-1,2,3,4-tetrahydroquinolin-8-yl)thieno[3,2-b]pyridin-2-yl)methyl)-1-methyldihydropyrimidine-2,4(1H,3H)-dione] returned an IC50 below 0.01 µM.

As to `CC1(C)OC(=O)C(Cc2cc3nccc(-c4cc(Cl)cc5c4N([C@@H]4CNC6(CCC6)C4)CCC5)c3s2)C(=O)O1` [Example 156, (S)-5-((7-(6-chloro-1-(5-azaspiro[3.4]octan-7-yl)-1,2,3,4-tetrahydroquinolin-8-yl)thieno[3,2-b]pyridin-2-yl)methyl)-2,2-dimethyl-1,3-dioxane-4,6-dione], the half-inhibitory concentration (IC50) was in the range of 0.101 to 1 µM.

`CC(C)(C)c1cnn(Cc2cc3nccc(-c4cc(C#N)cc5c4N([C@@H]4CN[C@@H](CO)C4)C[C@H]4C[C@@H]54)c3s2)c(=O)c1` (single isomer, unassigned) [Example 192a] showed an IC50 below 0.01 µM.

`O=c1cc(N2CCOCC2)cnn1Cc1cc2nccc(-c3cc(Cl)cc4c3N(C3CNC3)CCC4)c2s1` [Example 34] had an IC50 of 0.01 to 0.1 µM.

As for `O=C1CN(C2CC(F)(F)C2)C(=O)N1Cc1cc2nccc(-c3cc(Cl)cc4c3N([C@@H]3CNC5(CCC5)C3)CCC4)c2s1` [Example 159, (S)-3-((7-(6-chloro-1-(5-azaspiro[3.4]octan-7-yl)-1,2,3,4-tetrahydroquinolin-8-yl)thieno[3,2-b]pyridin-2-yl)methyl)-1-(3,3-difluorocyclobutyl)imidazolidine-2,4-dione], the IC50 is below 0.01 µM.

Molecule `O=C1CCC(=O)N1Cc1cc2nccc(-c3cc(Cl)cc4c3N([C@@H]3CNC5(CCC5)C3)C[C@H]3C[C@@H]43)c2s1` [Example 165c, 1-((7-((1aS,7bR)-6-chloro-3-((S)-5-azaspiro[3.4]octan-7-yl)-1a,2,3,7b-tetrahydro-1H-cyclopropa[c]quinolin-4-yl)thieno[3,2-b]pyridin-2-yl)methyl)pyrrolidine-2,5-dione] came in with an IC50 below 0.01 µM.

`O=C1CCC(=O)N1Cc1cc2ncc(F)c(-c3cc(Cl)cc4c3N([C@H]3CCNC3)CCC4)c2s1` [Example 109, 1-((7-(6-chloro-1-((S)-pyrrolidin-3-yl)-1,2,3,4-tetrahydroquinolin-8-yl)-6-fluorothieno[3,2-b]pyridin-2-yl)methyl)pyrrolidine-2,5-dione] showed a half-inhibitory concentration (IC50) below 0.01 µM.

On to `O=C1CNCC(=O)N1Cc1cc2nccc(-c3cc(Cl)cc4c3N(C3CNC3)CCC4)c2s1` [Example 28, 1-[[7-[1-(azetidin-3-yl)-6-chloro-3,4-dihydro-2H-quinolin-8-yl]thieno[3,2-b]pyridin-2-yl]methyl]piperazine-2,6-dione], for which the IC50 was below 0.01 µM.

For the molecule `Cn1ccc(=O)n(Cc2cc3nccc(-c4cc(Cl)cc5c4N([C@H]4CCNC4)CCC5)c3s2)c1=O` [Example 63, (S)-3-((7-(6-chloro-1-(pyrrolidin-3-yl)-1,2,3,4-tetrahydroquinolin-8-yl)thieno[3,2-b]pyridin-2-yl)methyl)-1-methylpyrimidine-2,4(1H,3H)-dione], the 50% inhibitory concentration (IC50) is below 0.01 µM.

As to `O=c1cc(Oc2ccc(F)cc2)cnn1Cc1cc2nccc(-c3cc(Cl)cc4c3N(C3CNC3)CCC4)c2s1` [Example 36, 2-((7-(1-(azetidin-3-yl)-6-chloro-1,2,3,4-tetrahydroquinolin-8-yl)thieno[3,2-b]pyridin-2-yl)methyl)-5-(4-fluorophenoxy)pyridazin-3(2H)-one], the half-maximal inhibitory concentration (IC50) was 0.01 to 0.1 µM.

Turning to `O=c1cc(CC(F)(F)F)cnn1Cc1cc2nccc(-c3cc(Cl)cc4c3N([C@@H]3CNC5(CCC5)C3)CCC4)c2s1` [Example 154, (S)-2-((7-(6-chloro-1-(5-azaspiro[3.4]octan-7-yl)-1,2,3,4-tetrahydroquinolin-8-yl)thieno[3,2-b]pyridin-2-yl)methyl)-5-(2,2,2-trifluoroethyl)pyridazin-3(2H)-one], the concentration for half-maximal inhibition (IC50) is below 0.01 µM.

`O=C1CCC(=O)N1Cc1cc2nccc(-c3cc(Cl)cc4c3N(CC3CCNCC3)CCC4)c2s1` [Example 49, 1-[[7-[6-chloro-1-(4-piperidylmethyl)-3,4-dihydro-2H-quinolin-8-yl]thieno[3,2-b]pyridin-2-yl]methyl]pyrrolidine-2,5-dione] registered an IC50 of 0.101 to 1 µM.

In turn, `O=C1OC[C@@H](C(F)(F)F)N1Cc1cc2nccc(-c3cc(Cl)cc4c3N([C@@H]3CNC5(CCC5)C3)CCC4)c2s1` [Example 157, (S)-3-((7-(6-chloro-1-((S)-5-azaspiro[3.4]octan-7-yl)-1,2,3,4-tetrahydroquinolin-8-yl)thieno[3,2-b]pyridin-2-yl)methyl)-4-(trifluoromethyl)oxazolidin-2-one] showed a 50% inhibitory concentration (IC50) of 0.01 to 0.1 µM.

The molecule `C[C@]1(CO)C[C@H](N2CCCc3cc(Cl)cc(-c4cc[n+]([O-])c5cc(CN6C(=O)CCC6=O)sc45)c32)CN1` [Example 208, 7-(6-chloro-1-((3S,5R)-5-(hydroxymethyl)-5-methylpyrrolidin-3-yl)-1,2,3,4-tetrahydroquinolin-8-yl)-2-((2,5-dioxopyrrolidin-1-yl)methyl)thieno[3,2-b]pyridine 4-oxide] gave an IC50 below 0.01 µM.

For the molecule `O=C1CCC(=O)N1Cc1cc2nccc(-c3cc(Cl)cc4c3N(C3CO[C@@H](CO)C3)CCO4)c2s1` (single isomer, unassigned) [Example 227c], the 50% inhibitory concentration (IC50) is above 1 µM.

Source of the values: patent US20240158412A1 (Faxian Therapeutics, LLC, priority 2021, published 2024).
